These are literature values, as cited in patent US20050003017A1, “Hypotensive and hypertensive properties of renomedullar extracts” (priority 2000, published 2005).

The conditions of the data set: low stability; Svensson et al.

Turning to `CCCCC[C@H](O)/C=C/[C@H]1O[C@H]2C[C@H](O2)[C@@H]1C/C=C\CCCC(=O)O` [thromboxan A2], the half life entry was “about 30 seconds”.
